In patent US8288410B2, “3-substituted quinolinium and 7H-indolo[2,3-c]quinolinium salts as new antiinfectives” (Florida Agricultural and Mechanical University, priority 2008, dated 2012):
Read-outs that look alike come from different tables or passages of the source.

Assays:
Vero Cells = assay: Cytotoxicity, Vero cells; assay type: cell-based
MRSA = assay: Antibacterial susceptibility testing, MRSA; assay type: cell-based, methicillin resistant Staphylococcus aureus; details: for MRS IC50 / MRS MFC / MRS MIC: Table 1
Procedure: (§1) Using standard susceptibility tests, the compounds of the invention were determined to be active against MRSA, C. neoformans and several other bacteria, fungi and protozoa. More specifically, the antibacterial and antifungal testing was carried out in the following manner. Cryptococcus neoformans ATCC 90113 and MRSA were obtained from the American Type Culture Collection (Manassas. Va.). Several others including Candida albicans ATTC 90028, Aspergillus fumigatus ATCC 90906 and Mycobacterium intracellulare (M. intracellulare) ATCC 23086 were also procured. Susceptibility testing was performed using a modified version of the National Committee for Clinical Laboratory Standards method. M. intracellulare was tested using a modified method of Franzblau, et al., J. Clin. Microbiol., 1998, 36, 362-366. DMSO solutions of samples were serially diluted in saline, and transferred in duplicate to 96 well microplates. Microbial suspensions were diluted in the broth to afford desired colony forming units/mL according to the 0.5 McFarland Standard [C. Albicans: either Saboraud Dextrose broth (SDB) or RPMI 1640, C. neoformans: SDB, A fumigatus: either YM broth (for MICS) or RPMI-1640+5% Alamar Blue.] After adding microbial cultures to the sampled afforded a final volume of 200 μL and final test concentration starting with 20 μg/mL, plates were read prior to and after final incubation using either fluorescence at 544ex/590em (M intracellulare, A. fumigatus) using the Polarstar galaxy reader (Biotek Instruments, Vermont). Growth (saline only), solvent and blank (media only) controls were included on each test plate. Drug controls [Ciprofloxacin (ICN Biomedicals, Ohio) for bacteria and Amphotericin B (ICN Biomedicals, Ohio) for fungi] were included in each assay. Percent growth was calculated and plotted versus test concentration to afford IC50 (sample concentration that affords 50% inhibition or growth of the organism). The minimum inhibitory concentration (MIC) was determined by visually inspecting the plate, and is defined as the lowest test concentration that allows no detectable growth (for Almar Blue assays, no color change from blue to pink).

[1] = tested on: Candida albicans ATTC 90028; assay: Antifungal susceptibility testing, Candida albicans; assay type: cell-based
Procedure: as §1

[2] = tested on: Cryptococcus neoformans ATCC 90113; assay: Antifungal susceptibility testing, Cryptococcus neoformans; assay type: cell-based
Procedure: as §1

[3] = tested on: Aspergillus fumigatus ATCC 90906; assay: Antifungal susceptibility testing, Aspergillus fumigatus; assay type: cell-based
Procedure: as §1

Row | SMILES | Ca IC50 ([1]; Table 1) | Ca MFC ([1]; Table 1) | Ca MIC ([1]; Table 1) | Cn IC50 ([2]; Table 1) | Cn MFC ([2]; Table 1) | Cn MIC ([2]; Table 1) | A fu IC50 ([3]; Table 1, Aspergillus fumigatus) | A fu MFC ([3]; Table 1, Aspergillus fumigatus) | A fu MIC ([3]; Table 1, Aspergillus fumigatus) | MRS IC50 (MRSA) | MRS MFC (MRSA) | MRS MIC (MRSA) | other results
1 | Clc1ccc2c(c1)[nH]c1c[n+](CCCCCC3CCCCC3)c3ccccc3c12.[I-] [JRE-3-10-1] | – | – | – | – | – | – | – | – | – | – | – | – | TC50 Vero Cells (Vero Cells; Table 3): 9.3 µg/mL; MRSA IC50 (MRSA; Table 3): 5.0 µg/mL; MRSA MFC (MRSA; Table 3): — ((-) = >20 μg/mL); MRSA MIC (MRSA; Table 3): 25 µg/mL; Ca IC50 ([1]; Table 3): >20 µg/mL; Ca MFC ([1]; Table 3): — ((-) = >20 μg/mL); Ca MIC ([1]; Table 3): — ((-) = >20 μg/mL); Cn IC50 ([2]; Table 3): >20 µg/mL; Cn MFC ([2]; Table 3): — ((-) = >20 μg/mL); Cn MIC ([2]; Table 3): — ((-) = >20 μg/mL); A fu IC50 ([3]; Table 3, Aspergillus fumigatus): >20 µg/mL
2 | C[n+]1cc2c(c3cc(Cl)ccc3n2CCCCCC2CCCCC2)c2ccccc21.[I-] [JRE-3-13-1, 10-Chloro-7-(5-cyclohexyl-pentyl)-5-methyl-7H-indolo[2,3-c]quinolin-5-ium iodide] | – | – | – | – | – | – | – | – | – | – | – | – | TC50 Vero Cells (Vero Cells; Table 3): >10 µg/mL; IC50 (MRSA; Staphylococcus aureus, Table 3, read-out: MRSA IC50): 0.5 µg/mL; MFC (MRSA; Staphylococcus aureus, Table 3, read-out: MRSA MFC): 0.8 µg/mL; MIC (MRSA; Staphylococcus aureus, Table 3, read-out: MRSA MIC): 0.8 µg/mL; IC50 ([1]; ATTC90028, Table 3, read-out: Ca IC50): 0.9 µg/mL; MFC ([1]; ATTC90028, Table 3, read-out: Ca MFC): 1.6 µg/mL; MIC ([1]; ATTC90028, Table 3, read-out: Ca MIC): 1.6 µg/mL; IC50 ([2]; ATCC90113, Table 3, read-out: Cn IC50): 0.9 µg/mL; MFC ([2]; ATCC90113, Table 3, read-out: Cn MFC): 1.6 µg/mL; MIC ([2]; ATCC90113, Table 3, read-out: Cn MIC): 1.6 µg/mL; A fu MFC [3]: 25 µg/mL; A fu MIC [3]: 6.3 µg/mL; IC50 ([3]; ATCC90906, Table 3, Aspergillus fumigatus, read-out: A fu IC50): 2 µg/mL
3 | C[n+]1cc(N(CCCCCC2CCCCC2)c2ccc(C(F)(F)F)cc2)cc2ccccc21.[I-] [JRE-3-20-1] | – | – | – | – | – | – | – | – | – | – | – | – | TC50 Vero Cells (Vero Cells; Table 2): 25 µg/mL; MRSA IC50 (MRSA; Table 2): 0.40 µg/mL; MRSA MFC (MRSA; Table 2): 1.6 µg/mL; MRSA MIC (MRSA; Table 2): 0.78 µg/mL; Ca IC50 ([1]; Table 2): 0.65 µg/mL; Ca MFC ([1]; Table 2): 3.1 µg/mL; Ca MIC ([1]; Table 2): 1.6 µg/mL; Cn IC50 ([2]; Table 2): 0.65 µg/mL; Cn MFC ([2]; Table 2): 3.1 µg/mL; Cn MIC ([2]; Table 2): 1.6 µg/mL; A fu MFC [3]: 6.3 µg/mL; A fu MIC [3]: 3.1 µg/mL; A fu IC50 ([3]; Table 2, Aspergillus fumigatus): 1.0 µg/mL
4 | FC(F)(F)c1ccc(Sc2cc3ccccc3[n+](CCCCCc3ccccc3)c2)cc1.[I-] [XYZ-III-66] | 5.5 µg/mL | — ((-) = >20 μg/mL) | 10 µg/mL | 2.0 µg/mL | 10 µg/mL | 5.0 µg/mL | 3.0 µg/mL | — ((-) = >20 μg/mL) | 5.0 µg/mL | – | – | – | TC50 Vero Cells (Vero Cells; Table 1): NC (NC = Not toxic at 10 μg/mL)
5 | [I-].[O-][S+](c1ccc(C(F)(F)F)cc1)c1cc2ccccc2[n+](CCCCCc2ccccc2)c1 (centres unmarked) [XYZ-V-27] | — ((-) = >20 μg/mL) | — ((-) = >20 μg/mL) | — ((-) = >20 μg/mL) | 6.0 µg/mL | 20 µg/mL | 10 µg/mL | — ((-) = >20 μg/mL) | — ((-) = >20 μg/mL) | — ((-) = >20 μg/mL) | 0.50 µg/mL | — ((-) = >20 μg/mL) | 1.3 µg/mL | –
6 | [I-].[O-][S+](c1cccc(Br)c1)c1cc2ccccc2[n+](CCCCCc2ccccc2)c1 (centres unmarked) [XYZ-V-29] | — ((-) = >20 μg/mL) | — ((-) = >20 μg/mL) | — ((-) = >20 μg/mL) | 5.5 µg/mL | 20 µg/mL | 10 µg/mL | — ((-) = >20 μg/mL) | — ((-) = >20 μg/mL) | — ((-) = >20 μg/mL) | 0.90 µg/mL | — ((-) = >20 μg/mL) | 2.5 µg/mL | –
7 | O=C(c1ccc(Cl)cc1)c1cc2ccccc2[n+](CCCCCc2ccccc2)c1.[I-] [XYZ-V-62] | 7.0 µg/mL | — ((-) = >20 μg/mL) | 10 µg/mL | 2.0 µg/mL | 10 µg/mL | 5.0 µg/mL | 10 µg/mL | — ((-) = >20 μg/mL) | 20 µg/mL | 0.20 µg/mL | — ((-) = >20 μg/mL) | 3.1 µg/mL | –
